BindingDB's records for doi:10.1021/jm010988n (University of Regensburg, 2002)

Biological target: Platelet-derived growth factor receptor (Mus musculus)
Experiment: The cells were stimulated with PDGF (100 ng/mL) for 10 min at room temperature. Then the cell lysates were analyzed by SDS-PAGE and immunoblotting with anti-phosphotyrosine antibodies. Quantification of IC50 values was based on the intensity of the signal for autophosphorylated PDGF receptor. Titration was done using four to ei

Row | SMILES | IC50 (pH 7.4) | IC50
1 | COc1ccc2[nH]c(C(=O)c3cc4cc(OC)ccc4[nH]3)cc2c1 [Bis(5-methoxy-1H-2-indolyl)methanone] | 20 µM | 
2 | O=C(c1cc2ccccc2[nH]1)c1cc2cc(OCc3ccccc3)ccc2[nH]1 [5-(benzyloxy)-2-(1H-indol-2-ylcarbonyl)-1H-indole] | 20 µM | 
3 | O=C(c1cc2ccccc2[nH]1)c1cc2cc(OCCCCI)ccc2[nH]1 [5-(4-Iodobutoxy-1H-2-indolyl)(1H-2-indolyl)methanone] | 12.5 µM | 
4 | O=C(c1cc2ccccc2[nH]1)c1cc2cc(OC(=O)C3CCC3)ccc2[nH]1 [2-(1H-indol-2-ylcarbonyl)-1H-indol-5-yl cyclobutanecarboxylate] |  | 5.7 µM
